The results in this text go back to patent publication US20220144823A1, “PYRAZOLOPYRIDINE DERIVATIVES AS INHIBITORS OF PASK” (Galapagos NV, priority 2019, published 2022).

Test [1] addresses T1, autophosphorylation of PASK at position Thr307 in Hek293 cells overexpressing PASK (Homo sapiens, UniProt Q96RG2).
T1 construct: expressed in transfected cells; host or cells: Hek293
Briefly: PASK autophosphorylation ELISA assay. Format: cell-based. Conditions: 24 h, ELISA readout. In outline: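 Hek293 cells transiently transfected with full-length wild-type PASK-FLAG, treated 24 h in serum-free DMEM with an 8-point 1/3 dilution series from 30 μM final (0.3% DMSO). Lysates captured on anti-FLAG ELISA plates, Thr307 phosphorylation detected with phospho-Akt substrate (RXXS*/T*) antibody and HRP chemiluminescence; IC50 from percentage inhibition curves.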
For orientation: In an ELISA, binding on a coated surface is turned into a signal by an enzyme label.

For a further test, the target named is T2, human PASK (Homo sapiens, UniProt Q96RG2).
T2 construct: purchased ThermoFisher Scientific PR7013A
Briefly: ADP-Glo kinase assay. The format is biochemical. The following applies: ADPGlo PASK kinase assay, 25 μM ATP, ZIPtide 25 μM. In outline:
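Human recombinant PASK phosphorylating ZIPtide peptide with ATP, 120 min at RT; compounds in 10-point 1/5 dilution series, 1% DMSO final. ADP formed measured by ADP-Glo luminescence after ATP depletion; percent inhibition fitted to dose-response curves for averaged IC50.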

T1 sequence (Q96RG2 with tags, fused parts or gaps): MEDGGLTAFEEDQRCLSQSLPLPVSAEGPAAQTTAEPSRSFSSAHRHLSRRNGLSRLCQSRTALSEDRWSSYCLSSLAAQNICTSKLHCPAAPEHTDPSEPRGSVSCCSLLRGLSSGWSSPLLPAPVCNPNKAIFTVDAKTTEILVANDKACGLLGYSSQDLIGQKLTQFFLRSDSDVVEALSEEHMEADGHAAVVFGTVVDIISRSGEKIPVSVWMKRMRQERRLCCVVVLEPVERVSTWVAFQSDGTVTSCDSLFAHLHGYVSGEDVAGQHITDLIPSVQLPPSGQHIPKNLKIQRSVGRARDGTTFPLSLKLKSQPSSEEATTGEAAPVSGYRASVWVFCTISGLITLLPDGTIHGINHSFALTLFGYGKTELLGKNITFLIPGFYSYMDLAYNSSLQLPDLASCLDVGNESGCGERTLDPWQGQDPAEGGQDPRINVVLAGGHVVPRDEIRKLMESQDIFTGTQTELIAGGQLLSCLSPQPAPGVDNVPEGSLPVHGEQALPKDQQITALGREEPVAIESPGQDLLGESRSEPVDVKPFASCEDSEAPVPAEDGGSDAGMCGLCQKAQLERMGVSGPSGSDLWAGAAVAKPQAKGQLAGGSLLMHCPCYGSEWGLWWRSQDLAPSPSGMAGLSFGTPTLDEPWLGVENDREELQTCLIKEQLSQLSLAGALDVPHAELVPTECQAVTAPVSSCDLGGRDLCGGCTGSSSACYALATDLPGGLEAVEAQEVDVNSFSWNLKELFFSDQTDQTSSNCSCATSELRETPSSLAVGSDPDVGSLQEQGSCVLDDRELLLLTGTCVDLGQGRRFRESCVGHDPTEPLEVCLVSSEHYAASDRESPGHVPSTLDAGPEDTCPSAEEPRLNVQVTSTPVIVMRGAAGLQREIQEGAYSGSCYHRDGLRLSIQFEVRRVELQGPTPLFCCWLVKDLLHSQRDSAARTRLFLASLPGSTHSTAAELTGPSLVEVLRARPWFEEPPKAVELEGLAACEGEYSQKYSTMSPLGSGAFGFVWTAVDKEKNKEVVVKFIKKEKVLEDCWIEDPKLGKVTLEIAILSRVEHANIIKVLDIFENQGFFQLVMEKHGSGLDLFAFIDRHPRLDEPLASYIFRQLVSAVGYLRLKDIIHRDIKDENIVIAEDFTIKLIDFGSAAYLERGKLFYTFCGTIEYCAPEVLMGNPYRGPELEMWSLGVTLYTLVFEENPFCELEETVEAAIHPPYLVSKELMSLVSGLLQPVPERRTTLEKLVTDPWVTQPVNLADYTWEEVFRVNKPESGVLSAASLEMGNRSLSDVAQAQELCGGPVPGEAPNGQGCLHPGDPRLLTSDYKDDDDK
T2 sequence (Q96RG2 whole entry): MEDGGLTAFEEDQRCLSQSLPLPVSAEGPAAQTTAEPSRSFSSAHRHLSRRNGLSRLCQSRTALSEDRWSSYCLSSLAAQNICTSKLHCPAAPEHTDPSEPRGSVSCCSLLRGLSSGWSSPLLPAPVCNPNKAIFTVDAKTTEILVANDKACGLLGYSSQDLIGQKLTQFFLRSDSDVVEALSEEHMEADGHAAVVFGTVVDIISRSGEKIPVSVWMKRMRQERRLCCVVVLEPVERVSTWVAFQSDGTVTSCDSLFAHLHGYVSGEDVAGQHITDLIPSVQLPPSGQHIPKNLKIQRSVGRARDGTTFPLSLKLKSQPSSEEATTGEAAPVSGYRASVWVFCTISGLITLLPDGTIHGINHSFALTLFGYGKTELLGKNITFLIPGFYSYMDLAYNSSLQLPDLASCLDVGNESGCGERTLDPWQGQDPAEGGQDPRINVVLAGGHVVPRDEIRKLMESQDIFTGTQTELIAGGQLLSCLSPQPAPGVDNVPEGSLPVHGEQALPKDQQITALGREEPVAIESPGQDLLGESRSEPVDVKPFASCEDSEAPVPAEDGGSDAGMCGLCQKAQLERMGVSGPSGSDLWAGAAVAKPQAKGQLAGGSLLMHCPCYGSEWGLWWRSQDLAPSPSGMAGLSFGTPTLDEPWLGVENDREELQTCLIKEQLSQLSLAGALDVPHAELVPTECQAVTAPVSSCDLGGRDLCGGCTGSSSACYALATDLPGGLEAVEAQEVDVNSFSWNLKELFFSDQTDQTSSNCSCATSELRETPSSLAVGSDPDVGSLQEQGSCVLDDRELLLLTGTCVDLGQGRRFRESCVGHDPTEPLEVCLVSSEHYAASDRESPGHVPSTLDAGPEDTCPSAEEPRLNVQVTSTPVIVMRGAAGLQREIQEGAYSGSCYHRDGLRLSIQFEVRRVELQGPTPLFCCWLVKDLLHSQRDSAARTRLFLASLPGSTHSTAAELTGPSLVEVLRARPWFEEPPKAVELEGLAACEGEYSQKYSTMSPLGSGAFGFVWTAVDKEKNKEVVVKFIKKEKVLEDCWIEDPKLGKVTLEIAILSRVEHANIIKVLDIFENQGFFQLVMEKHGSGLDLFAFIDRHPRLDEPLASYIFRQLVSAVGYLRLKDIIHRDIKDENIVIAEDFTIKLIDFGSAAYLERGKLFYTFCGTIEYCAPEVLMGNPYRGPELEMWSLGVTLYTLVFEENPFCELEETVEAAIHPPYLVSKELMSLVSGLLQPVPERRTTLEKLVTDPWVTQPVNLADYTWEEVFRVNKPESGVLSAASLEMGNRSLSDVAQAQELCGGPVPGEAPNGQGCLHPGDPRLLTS

As a reminder, the IC50 is the midpoint of a concentration-inhibition curve. A high value points to a need for much substance. With `Cc1nn(C(C)C)c(C)c1-c1cnn2ccc(-c3cc(C(=O)O)co3)cc12` [Cpd 18, 5-[3-(1-isopropyl-3,5-dimethyl-pyrazol-4-yl)pyrazolo[1,5-a]pyridin-5-yl]furan-3-carboxylic acid], the IC50 in test [1] was 500 to 1000 nM; against human PASK, 0.01 to 10 nM.
